From patent publication US6444477B1, “Assay method for detecting 5-HT2B antagonists” (Pharmagene Laboratories Limited, priority 2000, dated 2002)
Where two headings read alike, the source gives them in different places. Marks after values point to notes of the source that are not given here.

Experiments:
[1] = target: T1, 5-HT2B receptor (Homo sapiens, UniProt P41595); details: cited from earlier work
Target sequence in this assay (P41595 whole entry, looked up): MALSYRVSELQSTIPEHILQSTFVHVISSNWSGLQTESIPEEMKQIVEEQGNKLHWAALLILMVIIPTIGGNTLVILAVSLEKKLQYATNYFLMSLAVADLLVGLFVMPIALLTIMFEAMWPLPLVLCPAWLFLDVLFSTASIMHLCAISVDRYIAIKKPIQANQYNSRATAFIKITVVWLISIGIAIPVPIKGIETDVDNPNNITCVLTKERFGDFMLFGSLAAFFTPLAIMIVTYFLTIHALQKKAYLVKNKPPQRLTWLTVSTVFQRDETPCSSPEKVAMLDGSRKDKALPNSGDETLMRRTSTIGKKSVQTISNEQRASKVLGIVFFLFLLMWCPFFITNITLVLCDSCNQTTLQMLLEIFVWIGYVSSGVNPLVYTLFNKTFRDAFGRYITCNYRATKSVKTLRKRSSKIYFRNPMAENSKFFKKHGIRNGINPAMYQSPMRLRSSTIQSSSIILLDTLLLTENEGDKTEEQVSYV

[2] = target: T2, human 5-HT2C receptor (Homo sapiens, UniProt P28335); details: cited from earlier work
T2 sequence (P28335 33-458): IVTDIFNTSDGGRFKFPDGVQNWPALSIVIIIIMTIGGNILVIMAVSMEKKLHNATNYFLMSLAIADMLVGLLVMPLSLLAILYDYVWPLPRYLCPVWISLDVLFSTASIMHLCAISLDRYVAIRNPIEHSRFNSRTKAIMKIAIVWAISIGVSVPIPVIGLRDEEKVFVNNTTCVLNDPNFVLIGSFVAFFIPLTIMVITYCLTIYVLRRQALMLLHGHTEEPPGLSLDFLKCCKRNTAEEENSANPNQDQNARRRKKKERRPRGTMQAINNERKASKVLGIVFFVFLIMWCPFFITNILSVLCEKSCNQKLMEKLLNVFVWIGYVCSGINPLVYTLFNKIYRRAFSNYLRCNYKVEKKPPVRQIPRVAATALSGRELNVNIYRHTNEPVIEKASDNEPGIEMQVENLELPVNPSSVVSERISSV

[3] = target: 5-HT receptor in human colon longitudinal muscle (Homo sapiens, UniProt P41595); test: 5-HT-induced potentiation of electrically stimulated contractions of human colon longitudinal muscle strips; assay type: cell-based
Sequence of 5-HT receptor in human colon longitudinal muscle (Homo sapiens, UniProt P41595) (P41595 whole entry): as the sequence (P41595 whole entry, looked up) above

[4] = target: T1, 5-HT2B receptor; details: cited from earlier work; remark: listed apart in the source
Target sequence in this assay (P41595 whole entry): as the sequence (P41595 whole entry, looked up) above

[5] = target: T3, human 5-HT4 receptor (Homo sapiens, UniProt Q13639); details: cited from earlier work
T3 sequence (Q13639 whole entry): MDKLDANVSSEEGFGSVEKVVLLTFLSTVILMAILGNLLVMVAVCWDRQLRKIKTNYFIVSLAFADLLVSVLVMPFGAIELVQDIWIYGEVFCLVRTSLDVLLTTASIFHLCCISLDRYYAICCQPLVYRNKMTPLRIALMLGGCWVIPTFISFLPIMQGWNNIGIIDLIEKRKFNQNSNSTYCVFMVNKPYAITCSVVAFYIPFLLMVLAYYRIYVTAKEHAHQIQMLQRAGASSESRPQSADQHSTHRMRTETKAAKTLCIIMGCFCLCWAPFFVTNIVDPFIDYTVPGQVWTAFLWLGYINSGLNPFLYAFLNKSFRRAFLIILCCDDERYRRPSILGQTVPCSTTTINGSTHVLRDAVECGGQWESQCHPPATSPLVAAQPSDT

[6] = target: T4, human 5-HT2A receptor (Homo sapiens, UniProt P28223); details: cited from earlier work
T4 sequence (P28223 whole entry): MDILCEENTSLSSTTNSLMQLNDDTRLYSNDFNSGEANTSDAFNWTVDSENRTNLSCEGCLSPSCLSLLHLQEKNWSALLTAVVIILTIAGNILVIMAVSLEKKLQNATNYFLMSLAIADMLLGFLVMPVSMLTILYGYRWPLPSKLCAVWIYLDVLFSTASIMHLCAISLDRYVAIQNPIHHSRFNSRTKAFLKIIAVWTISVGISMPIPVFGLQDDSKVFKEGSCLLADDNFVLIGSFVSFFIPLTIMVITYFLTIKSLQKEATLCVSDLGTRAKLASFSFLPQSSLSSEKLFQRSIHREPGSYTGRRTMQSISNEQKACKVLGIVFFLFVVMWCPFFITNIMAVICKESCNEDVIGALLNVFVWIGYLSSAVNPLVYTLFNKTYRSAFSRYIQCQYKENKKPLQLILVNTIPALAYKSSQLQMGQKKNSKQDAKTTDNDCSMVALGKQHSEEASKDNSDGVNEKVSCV

[7] = target: T1, 5-HT2B receptor; details: cited from earlier work; remark: listed apart in the source
Target sequence in this assay (P41595 whole entry): as the sequence (P41595 whole entry, looked up) above

[8] = tested on: 5-HT receptor in human colon longitudinal muscle; test: 5-HT-induced potentiation of electrically stimulated contractions of human colon longitudinal muscle strips; assay type: cell-based
[9] = target: T4, human 5-HT2A receptor; details: cited from earlier work; remark: listed apart in the source
[10] = target: T2, human 5-HT2C receptor; details: cited from earlier work; remark: listed apart in the source
[11] = target: T3, human 5-HT4 receptor; details: marked #; cited from earlier work

Cl.Cn1ccc2cc(NC(=O)Nc3cccnc3)ccc21 [SB-200646, N-(1-methyl-5-indolyl)-N′-(3-pyridyl)urea hydrochloride]
selectivity between 5-HT2B and 5-HT2C receptors [1]: Non-selective

N-(1-methyl-1H-indol-5-yl)N′-(-bezyl)-2,3,4,9-tetrahydro-1H-beta-carboline [LY-23728]
selectivity for 5-HT2B over 5-HT2C and 5-HT2A receptors [1]: 100 fold

COC(=O)[C@@H]1[C@H]2C[C@H]3c4[nH]c5ccccc5c4CCN3C[C@@H]2CC[C@@H]1O [Yohimbine]
affinity at human 5-HT2C receptor [2]: <5.0

CC(N)Cc1c[nH]c2ccc(O)cc12 (stereo not drawn) [Alpha-Me5-HT]
pEC50 for agonists at the 5-HT receptor in colon ([3]; human colon longitudinal muscle, mean ± s.e.mean, at least 3 donors): 8.5 ± 0.1
pEC50 for agonists at human 5-HT2B receptor [4]: 8.4
pEC50 for agonists at human 5-HT4 receptor [5]: 6.2

Cn1ccc2cc3c(cc21)CCN3C(=O)Nc1cccnc1 [SB 206553, 5-methyl-1-(3-pyridylcarbamoyl)-1,2,3,5-tetrahydropyrrolo [2,3-f]indole]
affinity from binding data (#) at human 5-HT2A receptor ([6]; marked #): 6.0^#
Kb [3]: 3.16 nM
antagonist potency against 5-HT response in human colon [3]: 8.5
pKB or pA2 for antagonists (*) at human 5-HT2B receptor [4]: 9.0*

CC(C)c1cc(-c2ccc(F)c3ccccc23)nc(N)n1 [RS 127445, 2-amino-4-(4-fluoronaphth-1-yl)-6-isopropylpyrimidine]
affinity from binding data (#) at human 5-HT2B receptor ([7]; marked #): 9.5^#
Kb [3]: 0.398 nM
pKB or pA2 for antagonists (*) at human 5-HT2C receptor ([2]; marked *): 6.4*

O=C(c1ccc(F)cc1)C1CCN(CCn2c(=O)[nH]c3ccccc3c2=O)CC1 [Ketanserin]
pKB or pA2 for antagonists (*) at human 5-HT4 receptor ([5]; marked *): 4.7*

NC1=N[C@H](O)[C@H]2[C@H]3O[C@]4(O)O[C@@H]([C@@H](O)[C@@]2(N1)[C@@H]4O)[C@]3(O)CO [tetrodotoxin]
effect on contractile responses of colon smooth muscle to electrical stimulation [8]: inhibited

CSc1ccc2c(c1)C(N1CCN(C)CC1)Cc1ccccc1S2 (stereo not shown) [Methiothepin]
pKB or pA2 for antagonists (*) at human 5-HT4 receptor [5]: <6.0*

CC[C@@H](CO)NC(=O)[C@@H]1C=C2c3cccc4c3c(cn4C)C[C@H]2N(C)C1 [Methysergide]
pKB or pA2 for antagonists (*) at human 5-HT2C receptor [2]: 8.9*
pKB or pA2 for antagonists (*) at human 5-HT4 receptor ([5]; marked *): <5.0*

Cc1cc2c(cc1Cl)N(C(=O)Nc1cccc3ncccc13)CC2 [SB-215505, 6-chloro-5-methyl-N-(5-quinolyl)-2,3-dihydro-1H-indole-1-carboxamide]
potency as 5-HT2B receptor antagonist [1]: 9.9
selectivity for 5-HT2B over 5-HT2C and 5-HT2A receptors [1]: 100 fold

COc1ccc2[nH]cc(CCN)c2c1 [5-MeOT]
pEC50 for agonists at the 5-HT receptor in colon [3]: 6.8 ± 0.2
pEC50 for agonists at human 5-HT2B receptor [4]: 7.6
pEC50 for agonists at human 5-HT4 receptor [5]: 6.2

Cc1cc(NC(=O)Nc2ccc3c(ccn3C)c2)sn1 [SB 204741, N-(1-methyl-5-indolyl)-N′-(3-methyl-5-isothiazolyl) urea]
pKB or pA2 for antagonists (*) at human 5-HT2A receptor [9]: <5.0*
Kb [3]: 158 nM
antagonist potency against 5-HT response in human colon [3]: 6.8
pKB or pA2 for antagonists (*) at human 5-HT2B receptor ([4]; marked *): 7.0*
affinity at human 5-HT4 receptor ([5]; neither * nor # printed): <5.0

Cc1cc2c(cc1Cl)N(C(=O)Nc1ccc(Oc3cccnc3C)nc1)CC2 [SB 242084]
affinity from binding data (#) at human 5-HT2C receptor [10]: <6.0^#
affinity from binding data (#) at human 5-HT2A receptor [6]: 6.8^#
affinity from binding data (#) at human 5-HT2B receptor [7]: 7.0^#
pKB estimate for antagonists at the 5-HT receptor in colon ([3]; human colon longitudinal muscle, at least 3 concentrations (methiothepin a single concentration), at least 3 donors): 6.3 ± 0.2
affinity from binding data (#) at human 5-HT4 receptor [11]: <5.0^#

CN1[C@@H]2CC[C@H]1C[C@@H](OC(=O)C(CO)c1ccccc1)C2 (stereo partly shown) [atropine]
effect on contractile responses of colon smooth muscle to electrical stimulation [8]: inhibited
